Here are results for eleven molecules from patent US4122179A, “Acid addition salts of vincamine and apovincamine” (priority 1976, dated 1978).

Structures can show the parent of a compound that is named as a salt.

For orientation: LD50 means the dose expected to kill half of the subjects tested. Read a high LD50 as lower toxicity.

Test system in the first data set: not listed separately
The experiment in a line: Hematic levels at different times after oral administration (absorption). The data set is classed as in vivo, Wistar rat. Conditions: 100 mg/kg expressed as vincamine/apovincamine, 5% carboxymethyl cellulose suspension. Here is the method: (§1) For the compounds of the present invention a number of pharmacological and pharmacokinetic tests have been carried out. […] As regards the pharmacological and pharmacodynamic activity, it has been studied on the percent variations of the hematic flow, as recorded at the vertebral arteria in the dog after administration of the tested compounds. As regards the pharmacokinetic tests, the compounds were administered per oral route to the Wistar rat, and the hematic levels at different times from the administration were measured.
For the evaluation of the absorption, all the compounds have been orally administered at the dosage of 100 mg/kg, expressed as vincamine and apovincamine, in form of a suspension in a 5% carboxymethyl cellulose solution.
The absorption was determined by evaulating the hematic levels at the following times (minutes) : 0, 30, 120, 240, 480, 10 hours and 12 hours, in order also to assess the time from the administration (max conc.time) the maximum absorption occurred.
The vincamine and apovincamine concentrations were assessed by chromatographic method.
For the evaluation of the prolonged action of the salts and of the adducts of vincamine and apovincamine the following criterium was adopted; as derivatives having a long-acting effect, there are considered those which, 120 minutes after the administration, show hematic levels higher than those obtained with vincamine and apovincamine.
In turn, Apovincamine tannate [Example 24.b] gave a Max. conc. time of 480 min.

The same data set, now with this note: 100 mg/kg expressed as vincamine/apovincamine, 5% carboxymethyl cellulose suspension, 100 mg/kg.
`CC[C@@]12C=C(C(=O)OC)n3c4c(c5ccccc53)CCN(CCC1)[C@H]42` [Example 5.b, Apovincamine 2,6-dihydroxybenzoate]: the Max. conc. time came to 120 min.
For the molecule `CC[C@@]12C=C(C(=O)OC)n3c4c(c5ccccc53)CCN(CCC1)[C@H]42` [Example 15.b, Apovincamine nicotinate], the Max. conc. time was 60 min.
Still for that read-out and setting: in the case of `CC[C@]12CCCN3CCc4c(n(c5ccccc45)[C@@](O)(C(=O)OC)C1)[C@@H]32` [Example 3.a, Vincamine glucose-1-phosphate] it was 240 min; in that of `CC[C@]12CCCN3CCc4c(n(c5ccccc45)[C@@](O)(C(=O)OC)C1)[C@@H]32` [Example 10.a], 240 min; in that of `CC[C@]12CCCN3CCc4c(n(c5ccccc45)[C@@](O)(C(=O)OC)C1)[C@@H]32` [Example 6.a, Vincamine 2,5-dihydroxybenzoate], 120 min.
On to `CC[C@@]12C=C(C(=O)OC)n3c4c(c5ccccc53)CCN(CCC1)[C@H]42` [Example 3.b, Apovincamine glucose-1-phosphate], for which the Max. conc. time was 120 min.
On the same count and under the same terms, under `CC[C@@]12C=C(C(=O)OC)n3c4c(c5ccccc53)CCN(CCC1)[C@H]42` [Example 20.b, Apovincamine theophylline-7-acetate] stands 120 min; under `CC[C@]12CCCN3CCc4c(n(c5ccccc45)[C@@](O)(C(=O)OC)C1)[C@@H]32` [Example 27.a, Vincamine hydroquinone], 120 min.
With `CC[C@]12CCCN3CCc4c(n(c5ccccc45)[C@@](O)(C(=O)OC)C1)[C@@H]32` [Example 4.c, glucose-6-phosphate acid salt], the Max. conc. time was 240 min.
On the same count and under the same terms, under `CC[C@@]12C=C(C(=O)OC)n3c4c(c5ccccc53)CCN(CCC1)[C@H]42` [Example 13.b, Apovincamine D(+)-camphorsulfonate] stands 120 min.

The test system of the next data set is vertebral arteria. The experiment in a line: Cerebral vasodilating activity: hematic flow at the vertebral arteria after i.v. administration. The data set is classed as in vivo. As to conditions: i.v. (femoral vein), 5 mg/kg of vincamine/apovincamine, anesthetized dog, 4 animals per compound. Here is the method:
as §1
The cerebral vasodilating activity was studied in the anestetized dog, by measuring, by means of Statham periarterial electromagnetic flowmeters, the hematic flow at the level of the […] which, in such animal species, constitutes the greatest blood supply to the brain.
The resuls are reported in the TABLE 2 (last column) as the percent variations of the flow measured at the level of the ledt vertebral arteria after the i.v. administration of the several compounds to be tested to groups of 4 animals for each compound. The results also confirm that the compounds of the invention are all endowed with a vasodilating activity at the level of the cerebral circulus, such an action being, for some compounds, much more remarkable than that of vincamine and apovincamine.
For Apovincamine tannate [Example 24.b], the “% increase (percent variation of hematic flow, left vertebral arteria)” value is 29.8%.

Staying with this data set, now noted: i.v. (femoral vein), 5 mg/kg of vincamine/apovincamine, anesthetized dog, 4 animals per compound; 5 mg/kg.
As for `CC[C@@]12C=C(C(=O)OC)n3c4c(c5ccccc53)CCN(CCC1)[C@H]42` [Example 5.b, Apovincamine 2,6-dihydroxybenzoate], the “% increase (percent variation of hematic flow, left vertebral arteria)” value was determined as 25.4%.
Same read-out and setting: under `CC[C@@]12C=C(C(=O)OC)n3c4c(c5ccccc53)CCN(CCC1)[C@H]42` [Example 15.b, Apovincamine nicotinate] stands 28.3%.
On the same count and under the same terms, in the case of `CC[C@]12CCCN3CCc4c(n(c5ccccc45)[C@@](O)(C(=O)OC)C1)[C@@H]32` [Example 3.a, Vincamine glucose-1-phosphate] it was 29.0%; in that of `CC[C@]12CCCN3CCc4c(n(c5ccccc45)[C@@](O)(C(=O)OC)C1)[C@@H]32` [Example 10.a], 27.9%; in that of `CC[C@]12CCCN3CCc4c(n(c5ccccc45)[C@@](O)(C(=O)OC)C1)[C@@H]32` [Example 6.a, Vincamine 2,5-dihydroxybenzoate], 28.0%.
The same measure, in the same setting: in the case of `CC[C@@]12C=C(C(=O)OC)n3c4c(c5ccccc53)CCN(CCC1)[C@H]42` [Example 3.b, Apovincamine glucose-1-phosphate] it was 26.4%.
In the case of `CC[C@@]12C=C(C(=O)OC)n3c4c(c5ccccc53)CCN(CCC1)[C@H]42` [Example 20.b, Apovincamine theophylline-7-acetate], the “% increase (percent variation of hematic flow, left vertebral arteria)” value was 27.2%.
In the case of `CC[C@]12CCCN3CCc4c(n(c5ccccc45)[C@@](O)(C(=O)OC)C1)[C@@H]32` [Example 27.a, Vincamine hydroquinone], the “% increase (percent variation of hematic flow, left vertebral arteria)” value turned out to be 29.1%.
Same read-out and setting: under `CC[C@]12CCCN3CCc4c(n(c5ccccc45)[C@@](O)(C(=O)OC)C1)[C@@H]32` [Example 4.c, glucose-6-phosphate acid salt] stands 28.2%; under `CC[C@@]12C=C(C(=O)OC)n3c4c(c5ccccc53)CCN(CCC1)[C@H]42` [Example 13.b, Apovincamine D(+)-camphorsulfonate], 37.4%.

Test system in the next data set: not listed separately
In words: Solubility. The data set is classed as physicochemical. As to conditions: alcohol (ethyl alcohol); qualitative.
On to `CC[C@@]12C=C(C(=O)OC)n3c4c(c5ccccc53)CCN(CCC1)[C@H]42` [Example 5.b, Apovincamine 2,6-dihydroxybenzoate], for which the solubility in alcohol entry is reported as “poorly soluble”.
Same read-out and setting: in the case of `CC[C@@]12C=C(C(=O)OC)n3c4c(c5ccccc53)CCN(CCC1)[C@H]42` [Example 15.b, Apovincamine nicotinate] it was “insoluble”.
On the same count and under the same terms, in the case of `CC[C@]12CCCN3CCc4c(n(c5ccccc45)[C@@](O)(C(=O)OC)C1)[C@@H]32` [Example 10.a] it was “insoluble”.
On the same count and under the same terms, under `CC[C@]12CCCN3CCc4c(n(c5ccccc45)[C@@](O)(C(=O)OC)C1)[C@@H]32` [Example 6.a, Vincamine 2,5-dihydroxybenzoate] stands “insoluble”.
For `CC[C@@]12C=C(C(=O)OC)n3c4c(c5ccccc53)CCN(CCC1)[C@H]42` [Example 13.b, Apovincamine D(+)-camphorsulfonate], the solubility in alcohol entry is given as “soluble”.

The same data set, now with this note: common organic solvents; qualitative.
With `CC[C@]12CCCN3CCc4c(n(c5ccccc45)[C@@](O)(C(=O)OC)C1)[C@@H]32` [Example 27.a, Vincamine hydroquinone], the “solubility in the common (organic) solvents” value is “insoluble”.

Staying with this data set, now noted: water; qualitative.
With `CC[C@@]12C=C(C(=O)OC)n3c4c(c5ccccc53)CCN(CCC1)[C@H]42` [Example 5.b, Apovincamine 2,6-dihydroxybenzoate], the solubility in water result is “insoluble”.
On the same count and under the same terms, under `CC[C@@]12C=C(C(=O)OC)n3c4c(c5ccccc53)CCN(CCC1)[C@H]42` [Example 15.b, Apovincamine nicotinate] stands “insoluble”.
Turning to `CC[C@]12CCCN3CCc4c(n(c5ccccc45)[C@@](O)(C(=O)OC)C1)[C@@H]32` [Example 3.a, Vincamine glucose-1-phosphate], the solubility in water entry is “partially soluble”.
Same read-out and setting: under `CC[C@]12CCCN3CCc4c(n(c5ccccc45)[C@@](O)(C(=O)OC)C1)[C@@H]32` [Example 10.a] stands “insoluble”.
The same measure, in the same setting: in the case of `CC[C@]12CCCN3CCc4c(n(c5ccccc45)[C@@](O)(C(=O)OC)C1)[C@@H]32` [Example 6.a, Vincamine 2,5-dihydroxybenzoate] it was “insoluble”.
As for `CC[C@@]12C=C(C(=O)OC)n3c4c(c5ccccc53)CCN(CCC1)[C@H]42` [Example 3.b, Apovincamine glucose-1-phosphate], the solubility in water result is recorded as “soluble”.
Same read-out and setting: in the case of `CC[C@@]12C=C(C(=O)OC)n3c4c(c5ccccc53)CCN(CCC1)[C@H]42` [Example 20.b, Apovincamine theophylline-7-acetate] it was “soluble”.
On the same count and under the same terms, under `CC[C@]12CCCN3CCc4c(n(c5ccccc45)[C@@](O)(C(=O)OC)C1)[C@@H]32` [Example 27.a, Vincamine hydroquinone] stands “insoluble”.
On the same count and under the same terms, under `CC[C@@]12C=C(C(=O)OC)n3c4c(c5ccccc53)CCN(CCC1)[C@H]42` [Example 13.b, Apovincamine D(+)-camphorsulfonate] stands “soluble”; under Apovincamine tannate [Example 24.b], “insoluble”.

Test system in a further data set: not listed separately
The experiment in a line: LD50 / acute toxicity, intraperitoneal route. It counts as in vivo. As to conditions: i.p.
In turn, `CC[C@@]12C=C(C(=O)OC)n3c4c(c5ccccc53)CCN(CCC1)[C@H]42` [Example 5.b, Apovincamine 2,6-dihydroxybenzoate] showed an LD50 of 750 mg/kg.
`CC[C@@]12C=C(C(=O)OC)n3c4c(c5ccccc53)CCN(CCC1)[C@H]42` [Example 15.b, Apovincamine nicotinate] came in with an LD50 of 750 mg/kg.
Same read-out and setting: in the case of `CC[C@]12CCCN3CCc4c(n(c5ccccc45)[C@@](O)(C(=O)OC)C1)[C@@H]32` [Example 3.a, Vincamine glucose-1-phosphate] it was 1150 mg/kg; in that of `CC[C@]12CCCN3CCc4c(n(c5ccccc45)[C@@](O)(C(=O)OC)C1)[C@@H]32` [Example 10.a], 1300 mg/kg.
On the same count and under the same terms, in the case of `CC[C@]12CCCN3CCc4c(n(c5ccccc45)[C@@](O)(C(=O)OC)C1)[C@@H]32` [Example 6.a, Vincamine 2,5-dihydroxybenzoate] it was 800 mg/kg.
`CC[C@@]12C=C(C(=O)OC)n3c4c(c5ccccc53)CCN(CCC1)[C@H]42` [Example 3.b, Apovincamine glucose-1-phosphate] yielded an LD50 of 850 mg/kg.
Still for that read-out and setting: under `CC[C@]12CCCN3CCc4c(n(c5ccccc45)[C@@](O)(C(=O)OC)C1)[C@@H]32` [Example 27.a, Vincamine hydroquinone] stands 500 mg/kg; under `CC[C@]12CCCN3CCc4c(n(c5ccccc45)[C@@](O)(C(=O)OC)C1)[C@@H]32` [Example 4.c, glucose-6-phosphate acid salt], 800 mg/kg.

Still in this data set, the particulars now being: i.p.; Gleason class in words, classes not defined.
Regarding `CC[C@@]12C=C(C(=O)OC)n3c4c(c5ccccc53)CCN(CCC1)[C@H]42` [Example 5.b, Apovincamine 2,6-dihydroxybenzoate], the “Toxicity (Gleason)” value is on record as “modest”.
Still for that read-out and setting: in the case of `CC[C@@]12C=C(C(=O)OC)n3c4c(c5ccccc53)CCN(CCC1)[C@H]42` [Example 15.b, Apovincamine nicotinate] it was “modest”; in that of `CC[C@]12CCCN3CCc4c(n(c5ccccc45)[C@@](O)(C(=O)OC)C1)[C@@H]32` [Example 3.a, Vincamine glucose-1-phosphate], “light”; in that of `CC[C@]12CCCN3CCc4c(n(c5ccccc45)[C@@](O)(C(=O)OC)C1)[C@@H]32` [Example 10.a], “light”.
Still for that read-out and setting: in the case of `CC[C@]12CCCN3CCc4c(n(c5ccccc45)[C@@](O)(C(=O)OC)C1)[C@@H]32` [Example 6.a, Vincamine 2,5-dihydroxybenzoate] it was “modest”.
Same read-out and setting: under `CC[C@@]12C=C(C(=O)OC)n3c4c(c5ccccc53)CCN(CCC1)[C@H]42` [Example 3.b, Apovincamine glucose-1-phosphate] stands “modest”.
For `CC[C@]12CCCN3CCc4c(n(c5ccccc45)[C@@](O)(C(=O)OC)C1)[C@@H]32` [Example 27.a, Vincamine hydroquinone], the “Toxicity (Gleason)” value is reported as “modest”.
The same measure, in the same setting: under `CC[C@]12CCCN3CCc4c(n(c5ccccc45)[C@@](O)(C(=O)OC)C1)[C@@H]32` [Example 4.c, glucose-6-phosphate acid salt] stands “modest”.
